The text below walks through data of PubChem BioAssay (NCI).

Several values for one entry are separate records, joined by “and”; a condition that tells them apart may be missing. Equal values may be shown once.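 How tested: cells in 96-well plates exposed to compound for 48 hours at five concentrations. GI50: concentration for 50% inhibition of growth. TGI denotes the concentration required for complete inhibition of growth.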

Common to all, as to experiment: NCI-60 cell line screen, 48 h
The subject of assay [1] is U251 CNS.
For assay [2], the system named is LOX IMVI melanoma.
Assay [3] has as its system UACC-62 melanoma.
For assay [4], the system named is HT29 colon.
The subject of assay [5] is SF-295 CNS.
Assay [6] relates to SF-539 CNS.
Assay [7] concerns CAKI-1 renal.
Assay [8] relates to UACC-257 melanoma.
For assay [9], the system named is NCI-H522 lung.
The test system of assay [10] is HOP-92 NSCLC.

As to `Cc1ccc(-c2cc(-c3ccco3)c(C#N)c(=S)n2C2OC(CO)C(O)C(O)C2O)cc1` (centres undefined), the GI50 in assay [1] was 16.6 µM and 36.5 µM; in assay [2], 8.19 µM and 43.1 µM; in assay [5], 11.8 µM and 28.6 µM; in [6], 11.5 µM and 37.2 µM; in assay [7] it was 17.6 µM and > 100 µM; in assay [9] it was 29.5 µM and 65.4 µM. In addition, the TGI is 35.6 µM and > 100 µM in assay [1]; 38.4 µM and > 100 µM in assay [2]; 13.3 µM and > 100 µM in [3]; greater than 100 µM in assay [4]; 31.3 µM and > 100 µM in assay [5]; 28 µM and > 100 µM in assay [6]. In addition, the TGI in assay [7] was 46.9 µM and > 100 µM; in assay [8] it was greater than 100 µM; in assay [9], greater than 100 µM.

Take `COc1ccc(-n2c(C)nc3ccc(NC(=S)Nc4ccccc4)cc3c2=O)cc1`: the TGI in assay [1], in assay [2], in [3], in assay [4], in assay [5] and in assay [7] was greater than 100 µM each time. Further, the TGI in assay [8] and in [9] was greater than 100 µM throughout.

Take `CC(=O)Nn1c(=S)[nH]c2ccccc21`: the TGI in assay [1], in assay [2], in [3], in assay [10], in [4] and in [5] was greater than 100 µM each time. Also, the TGI in assay [7], in [8] and in assay [9] was greater than 100 µM each time.

As to `COc1cccc(Nc2nc(-c3cccs3)nc3cc(OC)c(OC)cc23)c1`, the TGI in assay [1] came out at 61.8 µM; in assay [3] it was 39.8 µM; in assay [10], 51.9 µM; in assay [4], 48.8 µM; in [5], 53.1 µM; in [6], 45.7 µM. For the same molecule, the TGI was 73.4 µM in assay [7], greater than 100 µM in [8] and 43.1 µM in [9].

For the molecule `CN(C)CCNS(=O)(=O)c1ccc(N)cc1`, the TGI in assay [1], in assay [3], in [10], in assay [4], in assay [5] and in [6] was greater than 100 µM each time. In addition, the TGI in assay [7], in assay [8] and in assay [9] was greater than 100 µM throughout.

Take `Oc1ccc(Cc2cc(Cc3ccc(O)cc3)cc(Cc3ccc(O)cc3)c2)cc1`: the TGI in assay [1], in assay [2], in assay [3], in assay [4], in assay [5] and in assay [6] was greater than 50 µM throughout. For the same molecule, the TGI in assay [8] and in assay [9] was greater than 50 µM in each case.

On to `CC(=O)Oc1cccc2c1C(=O)CCCC2`, for which the TGI in [1], in [2], in [3], in assay [4], in assay [5] and in assay [6] was greater than 100 µM each time. For the same molecule, the TGI in [7], in assay [8] and in assay [9] was greater than 100 µM in each case.

On to `NC(N)=Nc1ccc(CC(N)NCC(=O)O)cc1` (centres undefined), for which the TGI in assay [1], in assay [2], in [3], in [10], in [4] and in assay [5] was greater than 25 µM throughout. Further, the TGI in assay [7], in assay [8] and in assay [9] was greater than 25 µM throughout.

Turning to `Cc1ccc(N(Cc2ccccc2)Cc2ccccc2)cc1`, the TGI in assay [1], in [2], in assay [3], in assay [4], in assay [5] and in assay [6] was greater than 100 µM throughout. The TGI in assay [7] is greater than 100 µM; in [8], greater than 100 µM; in [9], 86.8 µM.

Take `CC1(C)O[C@H]2OC(CO[Si](C)(C)C(C)(C)C)C(N=[N+]=[N-])[C@H]2O1` (some centres undefined): the TGI came out at 48.1 µM in assay [1]; 35.9 µM in assay [2]; 52.6 µM in [3]; 75.9 µM in [10]; 25.5 µM in assay [4]; 24.9 µM in [5]. The figures for the TGI in assay [6], in assay [7] and in assay [8] were 36 µM, 42.5 µM and 35.5 µM, respectively.

Turning to `N=c1nnc2ccc(Cl)cc2n1O`, the TGI in [1], in assay [2], in assay [3], in [4], in assay [5] and in [7] was greater than 100 µM throughout. The TGI in [8] and in assay [9] was greater than 100 µM each time.

With `CC1(C(=O)O)CCC2(C)CCC3(C)C(=CC(=O)C4C5(C)CCC(O)C(C)(C)C5CCC43C)C2C1` (centres undefined), the TGI was greater than 100 µM in [1]; 41.8 µM in assay [2]; 42.5 µM in assay [3]; 38.7 µM in [4]; 70.1 µM in [5]; 32.5 µM in assay [6]. The TGI in assay [7] was greater than 100 µM; in [8] it was greater than 100 µM; in assay [9], 50.1 µM.

For the molecule `N#C/C(=C1/Sc2c(nc[nH]c2=O)N1c1ccccc1)c1nc2ccccc2[nH]1`, the TGI in assay [1], in assay [3], in assay [10], in [4], in [5] and in [6] was greater than 100 µM throughout. In addition, the TGI in assay [7], in assay [8] and in assay [9] was greater than 100 µM each time.

Consider `O=C(Cc1ccc(O)c(O)c1)NCc1c[nH]c2ccccc12`, for which the TGI in assay [10], in assay [4], in [5], in [6], in assay [7] and in assay [8] was greater than 100 µM throughout. The molecule also gave a TGI in [9] greater than 100 µM.

As to `N#CC(Cc1ccccc1)N(CCC1=CCCCC1)C(c1ccccc1)c1ccccc1` (centres undefined), the TGI in assay [1], in assay [3], in assay [10], in assay [4], in assay [5] and in assay [7] was greater than 100 µM in each case. In addition, the TGI is greater than 100 µM in [8] and 65.9 µM in assay [9].

On to `Cc1cccc(Cn2c3c(c4cc(O)ccc42)C(=O)c2ccccc2C3=O)c1`, for which the TGI in assay [1] is 88.3 µM; in assay [2] it was greater than 100 µM; in assay [3] it was greater than 100 µM; in assay [4], greater than 100 µM; in assay [5] it was 21.9 µM; in [6] it was 26.9 µM. The TGI in assay [7] and in assay [8] was greater than 100 µM throughout.

As to `Cc1ccc(-c2csc(=Nc3ccccc3)n2NC(=O)c2ccncc2)cc1`, the TGI in assay [1] was greater than 31.6 µM; in assay [2] it was greater than 100 µM; in [3] it was 70.6 µM; in [10], greater than 100 µM; in assay [4], 60 µM; in [5] it was 74.9 µM. Further, the TGI in assay [6], in assay [7] and in [8] was greater than 100 µM each time.

`Oc1ccc(-c2nc3ccc(Br)cc3s2)cc1`: the TGI in assay [1] came out at 50.8 µM; in [2] it was 30.1 µM; in assay [3], 27.4 µM; in assay [4] it was 50.5 µM; in assay [5], 33 µM; in [6], 35.8 µM. For the same molecule, the TGI in assay [7] came out at 33.7 µM; in assay [8] it was 51.1 µM; in assay [9], 22.9 µM.

Take `CC1CN(C)c2ccccc2N=C1NN` (centres undefined): the TGI in assay [1], in [3], in assay [4], in assay [5], in [7] and in assay [8] was greater than 100 µM each time. The TGI in [9] is greater than 100 µM.

In the case of `C=CC1(CC/C(=C\[N+](=O)[O-])c2ccc(OC)c(OC)c2)OCC(C)(C)CO1`, the TGI in [1] is greater than 100 µM; in assay [2], 55.8 µM; in [3], 29.4 µM; in assay [10], 54.8 µM; in assay [4], 97.8 µM; in assay [5] it was 53.1 µM. Further, the TGI came to 52.9 µM in [7], 26.8 µM in assay [8] and 37.8 µM in assay [9].

As for `O=c1[nH]c(=S)[nH]c2c1C(c1ccc([N+](=O)[O-])cc1)c1c([nH]c(=S)[nH]c1=O)O2`, the TGI in [1], in [2], in [3], in assay [10], in [4] and in [5] was greater than 100 µM each time. For the same molecule, the TGI in assay [7], in assay [8] and in [9] was greater than 100 µM each time.

Take `CCOP(=O)(OCC)C(F)(F)c1ccc(CC(NC(=O)OC(C)(C)C)C(=O)O)cc1` (centres undefined): the TGI in assay [1], in assay [2], in [3], in [10], in assay [4] and in [5] was greater than 10 µM each time. Also, the TGI in assay [6], in [7] and in assay [8] was greater than 10 µM each time.

As for `COc1ccc(N=NC(=Nc2ccccc2)c2ccc(N(CCC#N)CCC#N)cc2)cc1`, the TGI in assay [1], in assay [3], in assay [10], in assay [4], in assay [5] and in [6] was greater than 100 µM in each case. In addition, the figures for the TGI in assay [7], in assay [8] and in [9] were greater than 100 µM, 56.8 µM and 69.1 µM, respectively.

As to `Oc1ccc2c(c1)c1c(n2CCN2CCOCC2)-c2ccccc2CC1`, the TGI is greater than 100 µM in assay [1]; 57.8 µM in assay [2]; 48.1 µM in [3]; 45.8 µM in assay [4]; greater than 100 µM in assay [5]; 44.9 µM in assay [6]. For the same molecule, the TGI in assay [7] and in [8] was greater than 100 µM in each case.

With `CCN(CC)CCNC(=O)c1cc2cc(NC(=O)c3cc4cc([N+](=O)[O-])ccc4[nH]3)ccc2[nH]1`, the TGI is greater than 100 µM in assay [2]; 87.5 µM in assay [3]; greater than 50.7 µM in assay [10]; greater than 100 µM in [4]; 65.6 µM in assay [5]; greater than 49.7 µM in assay [6]. Moreover, the TGI is greater than 100 µM in assay [7] and greater than 87.1 µM in assay [8].

For `O=C(NCc1ccccc1)c1n[nH][nH]c1=O`, the TGI in assay [1], in [3], in assay [4], in assay [5], in assay [7] and in [8] was greater than 100 µM each time. This molecule gave a TGI in [9] greater than 100 µM.

`Nn1c(Nc2ccc(S(=O)(=O)Nc3ncccn3)cc2)nnc(/C=C/c2c(O)ccc3ccccc23)c1=O`: the TGI in [1] was greater than 100 µM; in [2], greater than 100 µM; in [3] it was 52.6 µM; in assay [10], greater than 100 µM; in assay [4], greater than 100 µM; in assay [7], 89.9 µM. In addition, the TGI was determined as 55.2 µM in [8] and 69.6 µM in [9].

In the case of `CCOC(=O)c1c(CN2CCCC2)n(-c2ccccc2)c2cc(Br)c(O)cc12`, the TGI in [1] amounted to 30.4 µM; in [2], 29.8 µM; in assay [3] it was 31.1 µM; in [10], 44 µM; in [4], 18.2 µM; in assay [5], 32 µM. Besides, the values for the TGI in assay [7], in assay [8] and in assay [9] were 40.8 µM, 32.8 µM and 36.3 µM, respectively.

For the molecule `c1ccc2c3[nH]c(c2c1)=Nc1ccc(cc1)-c1nc2cc(ccc2o1)N=c1[nH]c(c2ccccc12)=Nc1ccc2nc(oc2c1)-c1ccc(cc1)N=3`, the TGI in assay [1], in assay [2], in assay [3], in assay [4], in assay [5] and in assay [7] was greater than 100 µM in each case. In addition, the TGI in assay [8] and in assay [9] was greater than 100 µM each time.

Take `N[C@@H](CCC(=O)NCP(=O)(O)O)C(=O)O`: the TGI in assay [1], in assay [3], in assay [4], in assay [5], in assay [6] and in [8] was greater than 100 µM in each case. The molecule also registered a TGI in assay [9] greater than 100 µM.
